From publication PMC9126943, “ADAMTS4-specific MR probe to assess aortic aneurysms in vivo using synthetic peptide libraries” (Nature Communications, 2022)
Several values for one entry are separate records, joined by “and”; a condition that tells them apart may be missing. Identical values can stand only once. Where a SMILES comes first, the peptide text is derived from it. Bridges are numbered along the chain shown (N, C = ends). The star is where a group is joined. Cy5(nonsulfonated) = CN1C(=CC=CC=CC2=[N+](CCCCCC(=O)*)c3ccccc3C2(C)C)C(C)(C)c2ccccc21; DOTA = O=C(O)CN1CCN(CC(=O)O)CCN(CC(=O)*)CCN(CC(=O)O)CC1

Key:
[1] = target: T1, ADAMTS4 in the aneurysmal aortic wall of ApoE−/− mice (Mus musculus, UniProt Q8BNJ2); assay: In vivo competition experiment
T1 construct: from tissue
T1 sequence (Q8BNJ2 209-833): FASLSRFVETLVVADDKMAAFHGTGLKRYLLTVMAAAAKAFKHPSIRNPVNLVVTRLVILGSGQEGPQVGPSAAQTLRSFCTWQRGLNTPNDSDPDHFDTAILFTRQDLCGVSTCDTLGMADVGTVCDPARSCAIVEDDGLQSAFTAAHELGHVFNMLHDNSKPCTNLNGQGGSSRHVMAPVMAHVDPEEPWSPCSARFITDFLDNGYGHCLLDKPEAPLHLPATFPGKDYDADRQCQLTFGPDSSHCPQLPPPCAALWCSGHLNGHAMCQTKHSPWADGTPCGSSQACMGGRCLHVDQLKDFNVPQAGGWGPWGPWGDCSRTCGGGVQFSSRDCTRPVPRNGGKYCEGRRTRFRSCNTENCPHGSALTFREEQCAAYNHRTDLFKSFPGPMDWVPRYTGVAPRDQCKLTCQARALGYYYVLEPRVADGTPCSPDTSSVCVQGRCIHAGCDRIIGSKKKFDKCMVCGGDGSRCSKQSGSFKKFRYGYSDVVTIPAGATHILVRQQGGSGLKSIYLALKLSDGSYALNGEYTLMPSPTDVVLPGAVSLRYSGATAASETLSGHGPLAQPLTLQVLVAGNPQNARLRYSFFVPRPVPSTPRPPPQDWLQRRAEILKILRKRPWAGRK
Description: An in vivo competition experiment was performed in 3 ApoE^−/− mice (n = 3) 4 weeks after AAA induction. On day 1, MR imaging was performed prior to and following the intravenous administration of the ADAMTS4-specific probe. On day 2, MRI was performed prior to and after the injection of a 7-fold higher dose of the non-paramagnetic europium-labeled ADAMTS4-specific probe. Then, a clinical dose of the ADAMST4 specific probe (0.13 mmol/kg) was administered with the following imaging after 20 min.
Analysis of resulting MR images was performed using OsiriX (version 7.1, OsiriX Foundation, Bernex, Switzerland). All morphometric measurements were conducted on high-resolution MRI images. In order to assess the signal intensities, regions of interest (ROIs) were measured as areas of signal enhancement, which were co-localized with areas of aneurysmal-aortic tissue. For these areas, the CNR was calculated using the following formula: CNR = (Combined vessel-wall and aneurysmal-aortic-tissue-signal − blood-signal)/standard-deviation-signal (noise). The signal of noise was defined as the standard deviation in pixel intensity from an ROI placed in the background air anterior to the aorta.

[2] = Gadolinium in the aortic wall by ICP-MS; assay type: in vivo, mouse; details: ICP-MS of digested aorta after probe administration; individual mice, n = 7
Description: The samples were dissolved with 12 ml ultrapure water.

ADAMTS4 = target: T2, ADAMTS4 (Homo sapiens, UniProt O75173); assay: MST instrument, ligand-dependent fluorescence change, Cy5-labeled peptides vs ADAMTS4 (incl. alanine scan); assay type: binding; details: Cy5-labeled peptide 3 nM, 25 °C, n = 3
T2 construct: This is consistent with the recombinant proteins, we used in the screening process; purchased BioTeZ Berlin-Buch GmbH 30 400 102
T2 sequence (O75173 213-685): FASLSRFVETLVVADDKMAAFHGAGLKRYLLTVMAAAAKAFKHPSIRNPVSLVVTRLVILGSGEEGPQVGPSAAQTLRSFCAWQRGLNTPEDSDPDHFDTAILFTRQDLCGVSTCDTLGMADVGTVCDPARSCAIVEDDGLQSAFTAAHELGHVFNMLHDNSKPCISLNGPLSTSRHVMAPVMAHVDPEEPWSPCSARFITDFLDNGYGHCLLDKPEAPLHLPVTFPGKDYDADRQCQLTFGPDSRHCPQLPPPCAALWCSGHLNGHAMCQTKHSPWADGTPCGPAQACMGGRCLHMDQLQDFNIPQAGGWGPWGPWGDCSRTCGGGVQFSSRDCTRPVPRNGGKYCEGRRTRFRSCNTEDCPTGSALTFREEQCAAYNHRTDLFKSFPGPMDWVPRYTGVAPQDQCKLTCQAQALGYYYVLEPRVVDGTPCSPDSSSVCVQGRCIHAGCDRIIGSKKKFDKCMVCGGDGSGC
Description: Microscale thermophoresis (MST) was performed on a Monolith Pico (NanoTemper, Munich, Germany). The Cy5-labeled peptides were diluted into the MST buffer (150 mM NaCl, 50 mM TRIS-HCl, 5 mM CaCl2, and Tween-20) to reach a dilution of 6 nM. ADAMTS4, ADAMTS5, and ADAMTS1 were directly used with the supplied concentration. For ADAMTS4, the starting concentration was 4.96 µM, while for ADAMTS1 it was 4.88 µM and for ADAMTS5 it was 2.46 µM. […] 20 µl of the protein solutions were transferred into a PCR tube. 10 µl of this first vial was transferred into a second vial and mixed by pipetting with 10 µl of the MST buffer. The dilution series was continued 14 times. From tube 16, 10 µl were removed. Into all 16 tubes, 10 µl of the respective peptide solution were added and mixed by pipetting. The samples were incubated for 20 min and subsequently transferred to premium capillaries (NanoTemper, Munich, Germany). The capillaries were transferred into the Monolith tray and measured with 10% excitation power on the pico-red excitation on high MST power at 25 °C. Analysis was performed with MO.Affinity Analysis v3.0.1 (NanoTemper, Munich, Germany) and Origin 2022 (OriginLab Corporation, Northampton, MA). […] We checked for ADAMTS4 and the ADAMTS4-specific-Cy5-labeled probe via a saturation test for specifying the ligand-dependent fluorescence change. Therefore, the three highest ligand concentrations and the three lowest ligand concentrations of the measurement were used and centrifuged for 15 min at 16060 x g at 20 °C. Of each concentration, 7 µl were picked and mixed with 7 µl of a 10 M urea solution each. The samples were heated at 95 °C for 5 min and measured in the MST. […] Each measurement was repeated three times independently and the binding constant was calculated by merging all three measurements. […] The data were normalized using MO Affinity Analysis v3.0.1 and the fraction bound [−] was shown. […] Therefore, the percentage variance of the values to the average was plotted.
All measurements were performed with 10% LED power, high MST power and at 25 °C. The ligand dependent fluorescence change was used for determining the binding. […] The concentrations of the peptide were kept constant (3 nM in the measurement), while the proteins were diluted in the same manner as for ADAMTS4. […] The Cy5-labeled peptides (3 nM in the measurement) were kept constant, while ADAMTS4 was diluted in the same manner for each peptide (n=3 biologically independent measurements for each peptide; the data are presented as mean values ± SD). […] MST: microscale thermophoresis; nM: nanomolar; His: L-histidine; LED: light-emitting diode; n/a: not available; KD: binding constant.

Row | SMILES | CNR d1 post, individual animals ([1]; day 1, Gd-labeled probe alone) | CNR d2 post, individual animals ([1]; day 2, after 7-fold dose of Eu-labeled probe followed by Gd-labeled probe 0.13 mmol/kg) | Gd amount in the aortic wall [2] | binding to ADAMTS4 (ligand-dependent fluorescence change), in words (ADAMTS4)
1 | N=C(N)NCCC[C@@H]1NC(=O)[C@H](CCCNC(=N)N)NC(=O)[C@H](CO)NC(=O)[C@@H](N)CSSC[C@@H](C(=O)N[C@@H](CO)C(=O)NCC(=O)NCC(=O)N[C@@H](CO)C(=O)NCC(=O)NCC(=O)N[C@@H](CCCCNC(=O)CN2CCN(CC(=O)O)CCN(CC(=O)O)CCN(CC(=O)O)CC2)C(=O)NCC(N)=O)NC(=O)CNC1=O (Gd complex, metal not drawn) [ADAMTS4-specific probe] (H-CSRRGCSGGSGGK(DOTA)G-NH2; disulfide 1-6) | 10.05 and 8.83 and 9.84 | 5.81 and 4.92 and 5.19 | 38.015 ng/kg and 35.695 ng/kg and 62.7086 ng/kg and 32.3631 ng/kg and 8.118 ng/kg and 16.4033 ng/kg and 11.8689 ng/kg | –
2 | C[N+]1=C(C=CC=CC=C2N(CCCCCC(=O)NCCCC[C@H](NC(=O)CNC(=O)CNC(=O)[C@H](CO)NC(=O)CNC(=O)CNC(=O)[C@H](CO)NC(=O)[C@@H]3CSSC[C@H](N)C(=O)N[C@@H](CO)C(=O)N[C@@H](CCCNC(=N)N)C(=O)N[C@@H](CCCNC(=N)N)C(=O)NCC(=O)N3)C(=O)NCC(N)=O)c3ccccc3C2(C)C)C(C)(C)c2ccccc21 [Cy5-labeled probe] (H-CSRRGCSGGSGGK(Cy5(nonsulfonated))G-NH2; disulfide 1-6; N-terminus and C-terminus assumed) | – | – | – | a ligand dependent fluorescence change occurs
